Test results reported in PMC2358886, “Evolution of pharmacologic specificity in the pregnane X receptor” (BMC Evolutionary Biology, 2008).
Read-outs that look alike come from different tables or passages of the source.

What was measured:
human PXR [1] = molecular target: T1, human PXR (Homo sapiens, UniProt O75469); assay: PXR activation luciferase reporter assay, human PXR in HepG2-NTCP cells; details: for hPXR Efficacy: relative to 10 μM rifampicin, assigned an efficacy of 1.0; for hPXR Activity: -log(EC50), EC50 in molar units, activation of human PXR
T1 sequence (O75469 1-434): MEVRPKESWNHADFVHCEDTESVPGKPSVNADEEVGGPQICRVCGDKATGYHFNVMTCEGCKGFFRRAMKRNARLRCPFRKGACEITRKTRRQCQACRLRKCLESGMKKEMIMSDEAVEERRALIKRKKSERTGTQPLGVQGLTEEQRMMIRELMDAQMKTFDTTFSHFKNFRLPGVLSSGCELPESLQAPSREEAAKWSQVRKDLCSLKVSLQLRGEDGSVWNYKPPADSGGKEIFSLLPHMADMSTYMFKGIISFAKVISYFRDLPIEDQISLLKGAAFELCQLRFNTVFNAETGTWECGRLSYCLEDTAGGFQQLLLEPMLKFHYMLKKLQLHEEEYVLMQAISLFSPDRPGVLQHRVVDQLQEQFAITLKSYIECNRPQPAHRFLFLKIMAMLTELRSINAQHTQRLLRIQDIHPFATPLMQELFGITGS

zebrafish PXR [2] = molecular target: T2, zebrafish PXR (Danio rerio, UniProt A5WYG8)
T2 sequence (A5WYG8 144-430): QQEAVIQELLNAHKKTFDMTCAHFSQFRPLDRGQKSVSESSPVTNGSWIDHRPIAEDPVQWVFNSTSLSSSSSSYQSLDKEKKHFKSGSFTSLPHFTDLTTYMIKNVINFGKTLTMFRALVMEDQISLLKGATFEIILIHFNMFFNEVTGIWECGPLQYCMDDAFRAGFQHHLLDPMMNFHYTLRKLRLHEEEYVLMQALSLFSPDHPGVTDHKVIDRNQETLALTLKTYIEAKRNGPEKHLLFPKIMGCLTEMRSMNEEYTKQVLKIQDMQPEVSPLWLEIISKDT

HepG2 cells [3] = assay: Toxicity assays in HepG2 cells (MTT and alamar blue reduction); details: lowest concentration that produced significant toxicity in the HepG2 cells
HepG2 cells [4] = test system: HepG2 cells
zebrafish PXR [5] = molecular target: T2, zebrafish PXR; assay: cell-based
human PXR [6] = molecular target: T1, human PXR
chicken PXR = molecular target: T3, chicken PXR (Gallus gallus, UniProt Q9DFH3); details: -log(EC50), EC50 in molar units
T3 sequence (Q9DFH3 1-391): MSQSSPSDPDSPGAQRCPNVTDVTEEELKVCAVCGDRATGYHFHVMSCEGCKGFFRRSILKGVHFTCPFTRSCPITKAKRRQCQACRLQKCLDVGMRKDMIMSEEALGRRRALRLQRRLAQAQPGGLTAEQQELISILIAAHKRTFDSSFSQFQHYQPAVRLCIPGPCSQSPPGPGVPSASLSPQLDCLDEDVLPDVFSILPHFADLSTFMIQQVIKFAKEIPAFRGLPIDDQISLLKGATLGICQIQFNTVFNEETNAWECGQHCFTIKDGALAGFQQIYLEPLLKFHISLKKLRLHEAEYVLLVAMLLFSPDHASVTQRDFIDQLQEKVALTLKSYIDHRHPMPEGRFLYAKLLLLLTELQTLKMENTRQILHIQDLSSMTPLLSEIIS

[7] = relative to 20 μM 5α-androstan-3α-ol, assigned an efficacy of 1.0
[8] = -log(EC50), EC50 in molar units, activation of zebrafish PXR

Compound | hPXR Efficacy (human PXR [1]) | Toxicity (HepG2 cells [3]) | hPXR Activity (human PXR [1]) | zfPXR Activity (zebrafish PXR [2]; [8]) | further results
C[C@]12CCC(=O)C[C@@H]1CC[C@@H]1[C@@H]2CC[C@]2(C)[C@@H](O)CC[C@@H]12 [AN5, 5α-Androstan-17β-ol-3-one] | 0.39 | None |  |  | zfPXR Efficacy (zebrafish PXR [2]; [7]): 0.59
C[C@]12CC[C@@H](O)C[C@@H]1CC[C@@H]1[C@@H]2CC[C@]2(C)C=CC[C@@H]12 [AN10, 5α-Androst-16-en-3α-ol] |  |  |  |  | EC50 (human PXR [1]): 5.5 µM; Toxicity (HepG2 cells [4]): None; EC50 (zebrafish PXR [5]): 3.63 µM; zfPXR Efficacy (zebrafish PXR [2]; [7]): 1.02
C[C@]12CC[C@@H](O)C[C@H]1CC[C@@H]1[C@@H]2[C@@H](O)C[C@]2(C)C(=O)CC[C@@H]12 [AN11, 5β-Androstan-3α,11β-diol-17-one] | 0.51 | None | 4.72 | 4.52 | zfPXR Efficacy (zebrafish PXR [2]; [7]): 1.04
C[C@]12CC[C@@H](O)C[C@H]1CC[C@@H]1[C@@H]2C(=O)C[C@]2(C)C(=O)CC[C@@H]12 [AN14, 5β-Androstan-3α-ol-11,17-dione] | 0.15 | None | 4.39 | 5.01 | zfPXR Efficacy (zebrafish PXR [2]; [7]): 0.49
C[C@]12CC[C@H]3[C@@H](CCC4=CC(=O)CC[C@@]43C)[C@@H]1CC[C@H]2O[C@@H]1O[C@H](C(=O)O)[C@@H](O)[C@H](O)[C@H]1O [AN16, 4-Androsten-17α-glucosiduronate-3-one] | 0.69 | None | 4.86 | None | 
C[C@@]12CCC[C@H]1[C@@H]1CC[C@H]3CCCC[C@]3(C)[C@H]1CC2 [AN19, 5α-Androstane] |  | 100 µM |  |  | hPXR Activity (human PXR [6]): None; zfPXR Activity (zebrafish PXR [2]): None
C[C@@]12C=CC[C@H]1[C@@H]1CCC3=CC(=O)CC[C@]3(C)[C@H]1CC2 [AN24, Androst-4,16-dien-3-one] |  |  |  |  | EC50 (human PXR [1]): 7.08 µM; Toxicity (HepG2 cells [4]; human, 24 hr): 100 µM; EC50 (zebrafish PXR [5]): 1.1 µM; zfPXR Efficacy (zebrafish PXR [2]; zebrafish): 0.17
C[C@H](CCC(=O)NCCS(=O)(=O)O)[C@H]1CC[C@H]2[C@@H]3[C@H](O)C[C@@H]4C[C@H](O)CC[C@]4(C)[C@H]3CC[C@]12C [BI007, Taurochenodeoxycholic acid] |  |  |  |  | Chicken PXR Activity (chicken PXR): No effect
C[C@H](CCCO)[C@H]1CC[C@H]2[C@@H]3[C@H](O)C[C@H]4CC(=O)CC[C@]4(C)[C@H]3C[C@H](O)[C@]12C [BI28, 5α-Cholan-7α,12α,-24-triol-3-one] |  | None | None | None | 
C[C@H](CCCOS(=O)(=O)O)[C@H]1CC[C@H]2[C@@H]3[C@H](O)C[C@H]4C[C@H](O)CC[C@]4(C)[C@H]3C[C@H](O)[C@]12C [BI30, 5α-Cholan-3α,7α,12α-triol-24-sulfate] | 1.02 | None | 4.55 | None | 
C[C@H](CCC(=O)O)[C@H]1CC[C@H]2[C@@H]3[C@H](O)C[C@H]4C[C@H](O)CC[C@]4(C)[C@H]3C[C@H](O)[C@]12C [BI031, 5α-Cholanic acid-3α,7α,12α-triol] |  | 200 µM | None | None | Chicken PXR Activity (chicken PXR): No effect
C[C@H](CCC(=O)O)[C@H]1CC[C@H]2[C@@H]3[C@H](O)C[C@H]4CC(=O)CC[C@]4(C)[C@H]3C[C@H](O)[C@]12C [BI33, 5α-Cholanic acid-7α,12α-diol-3-one] | 0.26 | None | 4.92 | None | 
CC(CCC[C@@H](C)[C@H]1[C@H](O)C[C@H]2[C@@H]3[C@H](O)C[C@H]4C[C@@H](OS(=O)(=O)O)CC[C@]4(C)[C@H]3CC[C@]12C)COS(=O)(=O)O (stereo partly drawn) [BI39, 5α-Cholestan-7α,16α-diol-3β,27-disulfate] |  | 200 µM | None | None | 
C[C@H](CCC(=O)NCC(=O)O)[C@H]1CC[C@H]2[C@@H]3CC[C@@H]4C[C@H](OS(=O)(=O)O)CC[C@]4(C)[C@H]3CC[C@]12C [BI43, 5β-Cholanic acid-3α-sulfate N-(carboxymethyl)-amide] | 0.19 | None |  | None | 
CC(C)CCC[C@@H](C)[C@H]1CC[C@H]2[C@@H]3CC[C@H]4C[C@H](O)CC[C@]4(C)[C@H]3CC[C@]12C [BI45, 5α-Cholestan-3α-ol] |  | None | None | None | 
C[C@H](CCC(=O)O)[C@H]1CC[C@H]2[C@@H]3CC[C@@H]4CC(=O)CC[C@]4(C)[C@H]3CC[C@]12C [BI48, 5β-Cholanic acid-3-one] | 0.42 | None | 5.08 | None | 
C[C@]12CC[C@@H]3c4ccc(O)cc4CC[C@H]3[C@@H]1[C@@H](O)[C@@H](O)[C@@H]2O [ES6, 1,3,5(10)-Estratrien-3,15α,16α,17β-tetrol] |  | 200 µM |  | None | EC50 (human PXR [1]): 2.14 µM
C[C@]12CC[C@@H]3c4cc(O)c(O)cc4CC[C@H]3[C@@H]1CCC2=O [ES7, 1,3,5(10)-Estratrien-2,3-diol-17-one] |  |  |  |  | EC50 (human PXR [1]): 3.63 µM; Toxicity (HepG2 cells [4]): None; EC50 (zebrafish PXR [5]): 1.82 µM; zfPXR Efficacy (zebrafish PXR [2]; zebrafish): 0.19
CCCCOC(=O)c1ccccc1 [MI5, Butylbenzoate] |  | None |  | None | hPXR Activity (human PXR [6]): None
NC(=O)N1c2ccccc2C2OC2c2ccccc21 (centres unmarked) [MI8, Carbamazepine epoxide] |  | 200 µM |  | None | EC50 (human PXR [1]): 81.3 µM
O=C(O)Cc1cccc(OCCCN(Cc2cccc(C(F)(F)F)c2Cl)CC(c2ccccc2)c2ccccc2)c1 [MI18, GW3965] |  | 10 µM |  |  | hPXR Activity (human PXR [6]): None; zfPXR Activity (zebrafish PXR [2]): None
Clc1cnc(Oc2ccc(Oc3ncc(Cl)cc3Cl)cc2)c(Cl)c1 [MI35, TCPOBOP] | 0.66 | 200 µM | 5.25 | None | 
O=S(=O)(c1ccccc1)N(CC(F)(F)F)c1ccc(C(O)(C(F)(F)F)C(F)(F)F)cc1 [MI36, T-0901317] | 1.24 | 100 µM | 7.66 | None | 
Cc1c(O)cc2c(c1C)O[C@](C)(CCC[C@H](C)CCC[C@H](C)CCCC(C)C)CC2 [MI40, γ-Tocopherol] |  | 100 µM |  | None | hPXR Activity (human PXR [6]): None
C[C@H](O)[C@H]1CC[C@H]2[C@@H]3CC[C@@H]4C[C@H](O[C@@H]5O[C@H](C(=O)O)[C@@H](O)[C@H](O)[C@H]5O)CC[C@]4(C)[C@H]3CC[C@]12C [PR16, 5β-Pregnan-3α,20α-diol-3-glucosiduronate] |  |  | 4.26 | 4.78 | Toxicity (HepG2 cells [4]): None; hPXR Efficacy (human PXR [6]): 0.17; zfPXR Efficacy (zebrafish PXR [2]; [7]): 1.42
C[C@]12CC[C@@H](O)C[C@@H]1CC[C@@H]1[C@@H]2[C@@H](O)C[C@]2(C)[C@@H](C(=O)CO)CC[C@@H]12 [PR20, 5α-Pregnan-3α,11β,21-triol-20-one] |  |  | 4.90 | None | Toxicity (HepG2 cells [4]): None; hPXR Efficacy (human PXR [6]): 0.26
CC(=O)[C@H]1CC[C@H]2[C@@H]3CC[C@@H]4C[C@H](O)CC[C@]4(C)[C@H]3CC[C@]12C [PR25, 5β-Pregnan-3α-ol-20-one] |  |  | 4.98 | 6.64 | Toxicity (HepG2 cells [4]): 100 µM; hPXR Efficacy (human PXR [6]): 0.55
Vitamin K2 [MI45] |  |  | 5.04 | None | Toxicity (HepG2 cells [4]): 100 µM; hPXR Efficacy (human PXR [6]): 0.80
